Laboratory results from ChEMBL document CHEMBL5331122, “Structure-Activity Relationship Study of Antimicrobial Peptide PE2 Delivered Novel Linear Derivatives with Potential of Eradicating Biofilms and Low Incidence of Drug Resistance” (J Med Chem, 2023).
The source made the active and inactive calls. The calls are words filed in the database; no cut-off is given here. Where a SMILES comes first, the peptide text is derived from it. Bridges are numbered along the chain shown (N, C = ends). [ ]: non-standard residue; d: D form. The star is where a group is joined. Heptanoyl(6-Me) = CC(C)CCCCC(=O)*; dDab = NCC[C@@H](N)C(=O)O; Dab = NCC[C@H](N)C(=O)O

What was measured:
Erythrocyte = assay: Hemolytic activity in mouse red blood cell assessed as hemolysis incubated for 1 hr; format: toxicity, cell-based; conditions: dose 4-256 µg/ml
[1] = Acute toxicity in Kunming mouse assessed as survival rate at 20 mg/kg, ip measured for 7 days; format: organism-based; conditions: in vivo, 168 h, time 7 day
[2] = Acute toxicity in Kunming mouse assessed as survival rate at 20 to 31.7 mg/kg, ip measured at 2 hrs; format: organism-based; conditions: in vivo, dose 20-31.7 mg/kg
[3] = Acute toxicity in Kunming mouse assessed as survival rate at 31.7 mg/kg, ip measured after 2 hrs; format: organism-based; conditions: in vivo
[4] = Acute toxicity in ip dosed Kunming mouse assessed as lethal dose measured upto 7 days; format: organism-based; conditions: Kunming, in vivo, time < 7 day
Escherichia coli [5] = assay: Antibacterial activity against Escherichia coli ATCC 25922 in presence of 10% mouse serum measured for 6 hrs; format: functional, organism-based
Staphylococcus aureus [6] = assay: Antibacterial activity against Staphylococcus aureus ATCC 25923 in presence of 10% mouse serum measured for 6 hrs; format: functional, organism-based
Escherichia coli [7] = assay: Inhibition of biofilm formation in Escherichia coli ATCC 25922 assessed as inhibition of biofilm formation incubated for 24 hrs by crystal violet staining based analysis; format: functional, organism-based
Escherichia coli [8] = assay: Inhibition of biofilm formation in Escherichia coli ATCC 25922 assessed as inhibition of biofilm formation at 1/4 times MIC incubated for 24 hrs by crystal violet staining based analysis; format: functional, organism-based
Escherichia coli [9] = assay: Inhibition of biofilm formation in Escherichia coli ATCC 25922 assessed as inhibition of biofilm formation at 1/2 times MIC incubated for 24 hrs by crystal violet staining based analysis; format: functional, organism-based
Escherichia coli [10] = assay: Inhibition of biofilm formation in Escherichia coli ATCC 25922 assessed as inhibition of biofilm formation at 1 to 2 times MIC incubated for 24 hrs by crystal violet staining based analysis; format: functional, organism-based
Staphylococcus aureus [11] = assay: Inhibition of biofilm formation in Staphylococcus aureus ATCC 25923 assessed as inhibition of biofilm formation at 1/4 times MIC incubated for 24 hrs by crystal violet staining based analysis; format: functional, organism-based
Staphylococcus aureus [12] = assay: Inhibition of biofilm formation in Staphylococcus aureus ATCC 25923 assessed as inhibition of biofilm formation at 1/2 times MIC incubated for 24 hrs by crystal violet staining based analysis; format: functional, organism-based
Staphylococcus aureus [13] = assay: Inhibition of biofilm formation in Staphylococcus aureus ATCC 25923 assessed as inhibition of biofilm formation at 1 times MIC incubated for 24 hrs by crystal violet staining based analysis; format: functional, organism-based
Staphylococcus aureus [14] = assay: Antibiofilm activity against Staphylococcus aureus ATCC 25923 assessed as biofilm eradication at 1 times MIC incubated for 24 hrs; format: functional, organism-based
Staphylococcus aureus [15] = assay: Antibiofilm activity against Staphylococcus aureus ATCC 25923 assessed as biofilm eradication at 4 times MIC incubated for 24 hrs; format: functional, organism-based
Staphylococcus aureus [16] = assay: Antibiofilm activity against Staphylococcus aureus ATCC 25923 assessed as biofilm eradication at 8 times MIC incubated for 24 hrs; format: functional, organism-based
Staphylococcus aureus [17] = assay: Induction of drug resistance against Staphylococcus aureus ATCC 25923 measured upto 15 passages by sequential passaging method; format: functional
Escherichia coli [18] = assay: Additive antibacterial activity against Escherichia coli ATCC 25922 assessed as bacterial growth inhibition incubated for 18 hrs in presence of gentamycin by checkerboard assay; format: functional, organism-based
Escherichia coli [19] = assay: Additive antibacterial activity against Escherichia coli ATCC 25922 assessed as bacterial growth inhibition incubated for 18 hrs in presence of rifampicin by checkerboard assay; format: functional, organism-based
Staphylococcus aureus [20] = assay: Additive antibacterial activity against Staphylococcus aureus ATCC 25923 assessed as bacterial growth inhibition incubated for 18 hrs in presence of gentamycin by checkerboard assay; format: functional, organism-based
Staphylococcus aureus [21] = assay: Additive antibacterial activity against Staphylococcus aureus ATCC 25923 assessed as bacterial growth inhibition incubated for 18 hrs in presence of rifampicin by checkerboard assay; format: functional, organism-based
Escherichia coli [22] = assay: Synergistic antibacterial activity against gentamycin-resistant Escherichia coli ATCC 25922 incubated for 18 hrs by checkerboard assay; format: functional, organism-based
Escherichia coli [23] = assay: Synergistic antibacterial activity against rifampicin-resistant Escherichia coli ATCC 25922 incubated for 18 hrs by checkerboard assay; format: functional, organism-based
Staphylococcus aureus [24] = assay: Synergistic antibacterial activity against Staphylococcus aureus ATCC 25923 incubated for 18 hrs in presence of gentamycin by checkerboard assay; format: functional, organism-based
Staphylococcus aureus [25] = assay: Synergistic antibacterial activity against Staphylococcus aureus ATCC 25923 incubated for 18 hrs in presence of rifampicin by checkerboard assay; format: functional, organism-based
Escherichia coli [26] = assay: Bactericidal activity against Escherichia coli ATCC 25922 assessed as inhibition of bacterial growth incubated upto 360 mins by time-kill assay; format: functional, organism-based
Escherichia coli [27] = assay: Bactericidal activity against Escherichia coli ATCC 25922 assessed as inhibition of bacterial growth at 0.5 to 2 times MIC by time-kill assay; format: functional, organism-based; conditions: time <= 360.0 min, TDE = time-dependent effect
Escherichia coli [28] = assay: Bactericidal activity against Escherichia coli ATCC 25922 assessed as inhibition of bacterial growth at 0.5 to 2 times MIC measured at 90 mins by time-kill assay; format: functional, organism-based
Escherichia coli [29] = assay: Bactericidal activity against Escherichia coli ATCC 25922 assessed as inhibition of bacterial growth at 2 times MIC measured upto 360 mins by time-kill assay; format: functional, organism-based
Staphylococcus aureus [30] = assay: Bactericidal activity against Staphylococcus aureus ATCC 25923 assessed as inhibition of bacterial growth at 0.5 to 2 times MIC by time-kill assay; format: functional, organism-based; conditions: time <= 360.0 min, TDE = time-dependent effect
Staphylococcus aureus [31] = assay: Bactericidal activity against Staphylococcus aureus ATCC 25923 assessed as inhibition of bacterial growth incubated upto 360 mins by time-kill assay; format: functional, organism-based
Escherichia coli [32] = assay: Bactericidal activity against Escherichia coli ATCC 25922 assessed as inhibition of bacterial growth at 1/2 times MIC measured at 180 mins by time-kill assay; format: functional, organism-based
Escherichia coli [33] = assay: Bactericidal activity against Escherichia coli ATCC 25922 assessed as inhibition of bacterial growth at 1 times MIC measured at 120 mins by time-kill assay; format: functional, organism-based
Staphylococcus aureus [34] = assay: Bactericidal activity against Staphylococcus aureus ATCC 25923 assessed as inhibition of bacterial growth at 1/2 times MIC measured upto 360 mins by time-kill assay; format: functional, organism-based
Staphylococcus aureus [35] = assay: Bactericidal activity against Staphylococcus aureus ATCC 25923 assessed as inhibition of bacterial growth at 1 times MIC measured upto 360 mins by time-kill assay; format: functional, organism-based
Staphylococcus aureus [36] = assay: Bactericidal activity against Staphylococcus aureus ATCC 25923 assessed as inhibition of bacterial growth at 2 times MIC measured upto 360 mins by time-kill assay; format: functional, organism-based
Staphylococcus aureus [37] = assay: Bactericidal activity against Staphylococcus aureus ATCC 25923 assessed as inhibition of bacterial growth at 2 times MIC measured at 120 mins by time-kill assay; format: functional, organism-based
Escherichia coli [38] = assay: Antimicrobial activity against Escherichia coli ATCC 25922 assessed as reduction in microbial growth measured for 18 hrs in presence of […] microg/ml LPS; format: functional, organism-based
Escherichia coli [39] = assay: Antimicrobial activity against Escherichia coli ATCC 25922 assessed as reduction in microbial growth measured for 18 hrs in presence of 512 microg/ml LPS; format: functional, organism-based
Cell membrane [40] = assay: Induction of outer membrane permeabilization in Escherichia coli ATCC 25922 assessed as increase in fluorescence intensity at 1 to 4 times MIC measured for 12 hrs by NPN uptake assay; format: subcellular
Cell membrane [41] = assay: Induction of outer membrane permeabilization in Escherichia coli ATCC 25922 assessed as increase in fluorescence intensity at 2 times MIC measured for 12 hrs by NPN uptake assay; format: subcellular
Cell membrane [42] = assay: Induction of outer membrane permeabilization in Escherichia coli ATCC 25922 assessed as increase in fluorescence intensity at 4 times MIC measured for 12 hrs by NPN uptake assay; format: subcellular
Cell membrane [43] = assay: Induction of inner membrane permeabilization in Escherichia coli ML-35 ATCC 43837 assessed as increase in fluorescence intensity at 1 to 4 times MIC incubated upto 150 mins by ONPG staining based analysis; format: subcellular
Cell membrane [44] = assay: Induction of cell membrane damage in Escherichia coli ATCC 25922 at 2 times MIC after 0.5 to 2 hrs by propidium iodide staining based flow cytometer assay; format: subcellular; conditions: time 0.5-2 hrs
Cell membrane [45] = assay: Induction of cell membrane damage in Staphylococcus aureus ATCC 25923 at 2 times MIC after 0.5 to 2 hrs by propidium iodide staining based flow cytometer assay; format: subcellular; conditions: time 0.5-2 hrs
Cell membrane [46] = assay: Induction of cell membrane damage in Staphylococcus aureus ATCC 25923 at 2 times MIC measured at 30 mins by propidium iodide staining based flow cytometer assay; format: subcellular
Escherichia coli [47] = assay: Induction of membrane morphological changes in Escherichia coli ATCC 25922 at 4 times MIC measured at 0.5 to 2 hrs by SEM analysis; format: functional, organism-based; conditions: time 0.5-2 hrs
Staphylococcus aureus [48] = assay: Induction of membrane morphological changes in Staphylococcus aureus ATCC 25923 at 4 times MIC measured at 0.5 to 2 hrs by SEM analysis; format: functional, organism-based; conditions: time 0.5-2 hrs
Staphylococcus aureus [49] = assay: Induction of membrane morphological changes in Staphylococcus aureus ATCC 25923 assessed as appearance of broken bacterial cells at 4 times MIC measured at 0.5 to 2 hrs by SEM analysis; format: functional, organism-based; conditions: time 0.5-2 hrs
Staphylococcus aureus [50] = assay: Induction of membrane morphological changes in Staphylococcus aureus ATCC 25923 assessed as appearance of blistered bacterial cells at 4 times MIC measured at 0.5 to 2 hrs by SEM analysis; format: functional, organism-based; conditions: time 0.5-2 hrs
Staphylococcus aureus [51] = assay: Induction of membrane morphological changes in Staphylococcus aureus ATCC 25923 assessed as appearance of adherent bacterial cells at 4 times MIC measured at 0.5 to 2 hrs by SEM analysis; format: functional, organism-based; conditions: time 0.5-2 hrs
Klebsiella pneumoniae [52] = assay: Antibacterial activity against Klebsiella pneumoniae ATCC 700603 infected in BALB/c mouse pneumonia model at 5 to 10 mg/kg, ip measured at 4 to 12 hrs; format: functional, organism-based; conditions: dose 5-10 mg/kg, time 4-12 hrs
Klebsiella pneumoniae [53] = assay: Antibacterial activity against Klebsiella pneumoniae ATCC 700603 infected in BALB/c mouse pneumonia model assessed as reduction in lung bacterial load at 5 to 10 mg/kg, ip measured at 4 to 12 hrs; format: functional, organism-based; conditions: dose 5-10 mg/kg, time 4-12 hrs

CC(C)CCCCC(=O)N[C@@H](CCN)C(=O)N[C@H](C(=O)N[C@@H](CCN)C(=O)N[C@H]1CCNC(=O)[C@H]([C@@H](C)O)NC(=O)[C@H](CCN)NC(=O)[C@H](CCN)NC(=O)[C@H](CC(C)C)NC(=O)[C@@H](Cc2ccccc2)NC(=O)[C@H](CCN)NC1=O)[C@@H](C)O ({Heptanoyl(6-Me)}-[Dab]T[Dab][Dab][Dab][dF]L[Dab][Dab]T; lactam 4-C)
HC10 (Erythrocyte): 512 µg/mL
Activity [1]: Non-Toxic
Activity [2]: Toxic
Activity [3]: Toxic
LD50 at 168 h [4]: 26.7 mg/kg

CC(C)CCCCC(=O)N[C@@H](CCN)C(=O)N[C@H](C(=O)N[C@@H](CCN)C(=O)N[C@H]1CCNC(=O)[C@H]([C@@H](C)O)NC(=O)[C@H](CCN)NC(=O)[C@H](CCN)NC(=O)[C@H](CC(C)C)NC(=O)[C@@H](Cc2ccccc2)NC(=O)[C@@H](CCN)NC1=O)[C@@H](C)O ({Heptanoyl(6-Me)}-[Dab]T[Dab][Dab][dDab][dF]L[Dab][Dab]T; lactam 4-C)
Activity (Escherichia coli [5]): Active
Activity (Staphylococcus aureus [6]): Active
inhibition (Escherichia coli [7]): Dose-Dependent Effect
inhibition (Escherichia coli [8]): Active
inhibition (Escherichia coli [9]): inactive
inhibition (Escherichia coli [10]): Active
inhibition (Staphylococcus aureus [11]): Active
inhibition (Staphylococcus aureus [12]): Active
inhibition (Staphylococcus aureus [13]): inactive
Activity (Staphylococcus aureus [14]): inactive
Activity (Staphylococcus aureus [15]): Active
Activity (Staphylococcus aureus [16]): Active
Activity (Staphylococcus aureus [17]): Active
Activity (Escherichia coli [18]): Active
Activity (Escherichia coli [19]): Active
Activity (Staphylococcus aureus [20]): Active
Activity (Staphylococcus aureus [21]): Active
Activity (Escherichia coli [22]): Active
Activity (Escherichia coli [23]): Active
Activity (Staphylococcus aureus [24]): Active
Activity (Staphylococcus aureus [25]): Active
Activity (Escherichia coli [26]): Dose-Dependent Effect
Activity (Escherichia coli [27]): Tde
Activity (Escherichia coli [28]): Active
Activity (Escherichia coli [29]): Active
Activity (Staphylococcus aureus [30]): Tde
Activity (Staphylococcus aureus [31]): Dose-Dependent Effect
Activity (Escherichia coli [32]): Active
Activity (Escherichia coli [33]): Active
Activity (Staphylococcus aureus [34]): inactive
Activity (Staphylococcus aureus [35]): inactive
Activity (Staphylococcus aureus [36]): Active
Activity (Staphylococcus aureus [37]): Active
Activity (Escherichia coli [38]): Active
Activity (Escherichia coli [39]): inactive
Activity (Cell membrane [40]): Active
Activity (Cell membrane [41]): Active
Activity (Cell membrane [42]): Active
Activity (Cell membrane [43]): Active
Activity (Cell membrane [44]): Active
Activity (Cell membrane [45]): Active
Activity (Cell membrane [46]): inactive
Activity (Escherichia coli [47]): Active
Activity (Staphylococcus aureus [48]): Active
Activity (Staphylococcus aureus [49]): Active
Activity (Staphylococcus aureus [50]): Active
Activity (Staphylococcus aureus [51]): Active
Activity (Klebsiella pneumoniae [52]): Active
Activity (Klebsiella pneumoniae [53]): Active
